The assay deals with OCI-LY10. The experiment in a line: Antiproliferative effect in lymphoma cell line OCI-LY10 (CellTiter-Glo). The following applies: OCI-LY10, 5 days; for IC50: Homo sapiens, 120 h. The assay is classed as cell-based, human. The protocol: Experimental purpose: The experiment aims to evaluate the inhibitory effects of the test compounds on cell proliferation in the diffuse large B-cell lymphoma (DLBCL) cell lines OCI-LY10 and TMD-8.
The tumor cell lines were cultured in a 37° C., 5% CO2 incubator under the above culture conditions. Regular passage, and cells in logarithmic growth phase were taken for plating.
• (1) Cells were stained with trypan blue and viable cells were counted. • (2) The cell concentration was adjusted to an appropriate concentration.
• (3) 100 μL of cell suspension per well was added to the culture plate as shown above. • (4) The culture plate was cultured overnight in a 37° C., 5% CO2 incubator with 100% relative humidity.
Preparation of stock solution storage plate with 1000 times the initial concentration of the compound: The compound was serially diluted with DMSO from the highest concentration to the lowest concentration. The solution was prepared as needed each time.
4. Preparation of 1000× Compound Working Solution and Cell Treatment with Compounds • (1) Preparation of the working solution with 5 times the initial concentration of the compound: For 3-fold dilution of the compound, 30 μL of the compound from a stock solution at 1000-fold concentration was taken, and 20 μL of DMSO was added to the subsequent wells. Then, 10 μL was transferred from one concentration to the next in sequence. For 5-fold dilution of the compound, 30 μL of the compound from a stock solution at 1000-fold concentration was taken, and 24 μL of DMSO was added to the subsequent wells. Then, 6 μL was transferred from one concentration to the next in sequence. 20 μL of DMSO was added to the vehicle control. The 1000-fold concentrated compound was diluted 200 times with culture medium, i.e., 1 μL of the 1000-fold diluted compound is added to 199 μL of culture medium, and the mixture was homogenized using a pipette. • (2) Compound addition: 25 μL of the 5-fold compound solution was added to the cell culture plate. • (3) The 96-well cell plate was returned to the incubator to culture OCI-LY10 (with either 3-fold or 5-fold dilution, incubated with compounds added for 5 days) and TMD-8 (with either 3-fold or 5-fold dilution, incubated with compounds added for 5 days).
The following steps were performed according to the instructions of Promega CellTiter-Glo luminescent cell viability assay kit (Promega-G7573). • (1) CellTiter-Glo buffer was melted and brought to room temperature. • (2) CellTiter-Glo substrate was brought to room temperature. • (3) CellTiter-Glo working solution was prepared by adding 10 mL of CellTiter-Glo buffer to a vial of CellTiter-Glo substrate to dissolve the substrate. • (4) The mixture was slowly vortexed and shaken to be fully dissolved. • (5) The cell culture plate was taken out and left for 30 minutes to equilibrate to room temperature. • (6) 60 μL of CellTiter-Go working solution was added per well (equal to half the volume of cell culture medium per well). The cell plate was wrapped in aluminum foil to be protected from light. • (7) The culture plate was shaken on an orbital shaker for 2 minutes to induce cell lysis. • (8) The culture plate was left at room temperature for 10 minutes to stabilize the luminescent signal. • (9) The luminescent signal was detected on a 2104 EnVision plate reader.
The inhibition rate (IIR) of the test compound was calculated using the following formula: IR (%)=(1−RLU compound/RLU vehicle control)*100%. The inhibition rates of compounds at different concentrations were calculated in Excel, and then GraphPad Prism software was used to plot inhibition curves and calculate relevant parameters, including minimum inhibition rate, maximum inhibition rate, and IC50.
In general terms: In ATP-based viability assays light output follows the ATP content of the culture.

The structures appear in SMILES notation. Where a name gives a salt, the structure may show the parent alone.

For `CC(C)(O)c1cc2nc([C@H]3CC[C@H](CN4CCN(CC(=O)Nc5ccc6c(ccc7onc(C8CCC(=O)NC8=O)c76)c5)CC4)CC3)sc2cc1NC(=O)c1cccc(C(F)(F)F)n1` (some centres unmarked) [Formate of WX020], the IC50 is 25 nM and the Maximum inhibition rate was 94.96%.

Molecule `O=C1CCC(c2coc3cc(NC(=O)CN4CCN(C[C@H]5CC[C@H](N6CC(NC(=O)c7coc(-c8ccnc(NCC9CC9)c8)n7)C(C(F)F)N6)CC5)CC4)ccc23)C(=O)N1` (some centres unmarked) [Hydrochloride of WX002] yielded an IC50 of 192 nM and a Maximum inhibition rate of 63.27%.

For the molecule `O=C1CCC(c2noc3ccc4c(NC(=O)CN5CCN(C[C@H]6CC[C@H](n7cc(NC(=O)c8coc(-c9ccnc(NCC%10CC%10)c9)n8)c(C(F)F)n7)CC6)CC5)cccc4c23)C(=O)N1` (some centres unmarked) [Hydrochloride of WX014], the IC50 was 13.7 nM and the Maximum inhibition rate came to 94.54%.

`O=C1CCC(c2noc3ccc4c(NC(=O)C(F)(F)C5CCN(CC6CCC(n7cc(NC(=O)c8coc(-c9ccnc(NCC%10CC%10)c9)n8)c(C(F)F)n7)CC6)CC5)cccc4c23)C(=O)N1` (centres unmarked) [Hydrochloride of WX018] returned an IC50 of 6.99 nM and a Maximum inhibition rate of 99.92%.

The molecule `O=C1CCC(c2noc3cc(NC(=O)CN4CCN(C[C@H]5CC[C@H](n6cc(NC(=O)c7coc(-c8ccnc(NCC9CC9)c8)n7)c(C(F)F)n6)CC5)CC4)ccc23)C(=O)N1` (some centres unmarked) [Hydrochloride of WX025] displayed an IC50 of 24.4 nM and a Maximum inhibition rate of 97.39%.

On to `O=C1CCC(c2noc3c(NC(=O)CN4CCN(C[C@H]5CC[C@H](n6cc(NC(=O)c7coc(-c8ccnc(NCC9CC9)c8)n7)c(C(F)F)n6)CC5)CC4)cccc23)C(=O)N1` (some centres unmarked) [Hydrochloride of WX028], for which it took 85.2 nM to reach half-maximal inhibition (IC50) and the Maximum inhibition rate was 99.01%.

`O=C1CCC(c2coc3ccc4c(NC(=O)CN5CCN(C[C@H]6CC[C@H](n7cc(NC(=O)c8coc(-c9ccnc(NCC%10CC%10)c9)n8)c(C(F)F)n7)CC6)CC5)cccc4c23)C(=O)N1` (some centres unmarked) [Trifluoroacetate of WX011] registered an IC50 of 17 nM and a Maximum inhibition rate of 93.42%.

For orientation: IC50 means the concentration needed to halve the response being measured. Read a low IC50 as higher potency.

Source of the values: patent US20240400547A1, “2,6-PIPERIDINEDIONE COMPOUND AND APPLICATION THEREOF” (MEDSHINE DISCOVERY INC., priority 2021, published 2024).
